Source: patent US5571518A, “Cosmetic compositions containing tricholine citrate” (priority 1995, dated 1996)

Tests used:
Assay type in all cases: cell-based
human keratinocytes [1] = test: DNA synthesis in keratinocytes (3H-thymidine incorporation, keratinocyte proliferation)
Source text: The incorporation of ^3 H-thymidine by cultured keratinocytes was used as an assay of keratinocyte proliferation. Thymidine is one of four deoxynucleosides which are the monomeric units of DNA, the universal library of genetic information in the animal kingdom. Prior to cell division of a somatic cell such as a keratinocyte, the complete genome of the cell undergoing cell division is replicated. This involves large scale DNA synthesis by the cell and enables both daughter cells to receive identical copies of the genetic material. When ^3 H-thymidine is included in the culture media of keratinocytes which are synthesizing DNA in preparation for cell division then the labelled nucleoside is incorporated into the newly synthesized DNA. The extent of incorporation of ^3 H-thymidine into a population of cells is proportional to the rate of DNA synthesis by this population of cells and therefore an indication of their cellular proliferation.
1. Normal human keratinocytes isolated from neonatal foreskins by trypsin treatment were grown in DME medium/5% fetal calf serum in the presence of mitomycin C treated 3T3 mouse fibroblasts for establishing dividing keratinocyte colonies. Keratinocytes were grown under the above condition until their third passage.
2. For the experiments, third passage keratinocytes were plated into a serum-free keratinocyte growth medium (KGM; obtained from Clonetics, San Diego, Calif.) containing 0.09 mM calcium. 20,000 to 30,000 cells were plated into each well of 24 well cell culture plates and grown for 5 days, until the cells reach about 80% confluence.
3. Medium was changed to fresh medium and the various test materials were added to the medium from an ethanolic stock solution. The final ethanol concentration in the cultures was kept below 0.2%. Control cultures received no tested material but were dosed with 0.2% ethanol. Each compound or combination was tested in three separate wells. In four hours, 1 uCi of ^3 H-thymidine (Amersham Corp., Sp activity 40 Ci/mmol) was added to the 1 ml medium in each well. The cells were incubated overnight and 24 hours later the amount of ^3 H-thymidine associated with the cellular DNA of keratinocytes was assessed as described below.
4. The medium was aspirated, and the wells washed with 1 ml phosphate-buffered saline. The DNA and proteins of the cells in the plate were then precipitated by adding 1 ml of ice-cold 10% trichloroacetic acid (TCA). The plates were left on ice for 30 minutes to complete the precipitation process. TCA was then aspirated and each well was then washed four times with 5% TCA. The plates were then dried on a filter pad and the cells in the wells were dissolved in 0.5 ml of 0.1N sodium hydroxide. The sodium hydroxide was then neutralized using 0.1N hydrochloric acid and the solution (1 ml total volume) was then transferred to a scintillation vial. 50 μl samples from each vial were used for protein assay using BCA protein assay reagent obtained from Pierce Chemical Company. 8 ml of a scintillation fluid (Ecolume) was added to the rest of the solution in the vial, and the vials were counted in a scintillation counter to determine the amount of radioactivity in each vial. The DNA synthesis rate was then calculated as cpm ^3 H thymidine incorporated into total cellular DNA/microgram of cell protein for each individual well.

human keratinocytes [2] = test: Cornified envelope (CE) formation, marker of terminal differentiation of keratinocytes
Procedure: (§1) Human keratinocytes, isolated from neonatal foreskin by trypsin treatment were grown in Dulbecco Modification Eagle (DME) Hams F12 (3:1) medium/5% fetal calf serum in the presence of mitomycin C treated 3T3 mouse fibroblasts for establishing dividing keratinocyte colonies. Cells were grown under the above condition until their second passage and kept frozen for future use. Frozen second passage keratinocytes were thawed and plated into the above medium and grown for five days. On day 5, when the cells were 70-80% confluent, they were trypsinized and plated in the serum-free medium for the various experiments.
During the process of terminal differentiation in the epidermis, a 15 nm thick layer of protein, known as the cornified envelope (CE)is formed on the inner surface of the cell periphery. The CE is composed of numerous distinct proteins which have been cross-linked together by the formation of N ^ε -(-γ-glutamyl) lysine isodipeptide bonds catalyzed by the action of at least two different transglutaminases expressed in the epidermis. Transglutaminase (TG-1) is expressed in abundance in the differentiated layers of the epidermis, especially the granular layer, but is absent in the undifferentiated basal epidermis. Thus, TG-1 is a useful marker of epidermal keratinocyte differentiation with high TG-1 levels indicating a more differentiated state. An ELISA based TG-1 assay, using a TG-1 antibody, was used to assess the state of differentiation of the cultured keratinocytes in the examples that follow.
Proper skin conditioning require enhanced proliferation and differentiation of epidermal keratinocytes. The different citrate esters were tested on their effect on cornified envelope (CE) formation, a marker of terminal differentiation of keratinocytes. Citrate esters were tested at 1 mM levels in medium containing 0.15 mM Ca. Levels are expressed as % of control ±SD. The CE formation for the control was 54.48 ±31.8 cpm/μg cell protein.

human keratinocytes [3] = test: 3H choline incorporation into phospholipids of keratinocytes
Procedure: as §1
Choline acts as an essential nutrient for the cellular phospholipid biosynthesis of keratinocytes. Choline present in the medium is used up by the cells for phospholipid biosynthesis. If TCC provides choline for the cells it will complete with the choline in the medium for incorporation into cellular phospholipids. When cells are incubated with ^3 H-labelled choline, its incorporation into phospholipids will be decreased by the presence of unlabelled choline or TCC in the medium.
[…] The wells were washed, total lipids were extracted using Bleigh Dyer method as described above and the total counts in the chloroform phase was determined. To ascertain that the counts are present only in the phospholipid fraction, the amount of ^3 H choline incorporated into the different lipid fractions were quantitated by running TLC of the fractions in the above solvent system, and the amount of radioactivity in the phospholipid fraction (origin) was quantitated using BioScan plate reader. The cpm of ^3 H choline was plotted against the amount of cold choline or TCC added in the medium to assess the competition between choline supplied from TCC with ^3 H choline.
The amount of ^3 H choline incorporated into cellular phospholipids was determined and expressed as % of controls.

[4] = Homo sapiens, Keratinocyte, 24 h, read-out: Rate of DNA synthesis
[5] = Homo sapiens, Keratinocyte, 48 h, read-out: 3H choline incorporated into cellular phospholipids

O=C(O)CC(O)(CC(=O)O)C(=O)O [Citric acid, citric acid]
activity at 0.1 µM (human keratinocytes [1]; [4]): 88.4 ± 15.5% | activity at 1 µM (human keratinocytes [1]; [4]): 74.5 ± 32.2% | activity at 10 µM (human keratinocytes [1]; [4]): 89.9 ± 20.3% | activity at 100 µM (human keratinocytes [1]; [4]): 88.7 ± 5.1% | activity at 1000 µM (human keratinocytes [1]; [4]): 63.9 ± 11.8% | activity at 10000 µM (human keratinocytes [1]; [4]): 4.25 ± 2.2% | keratinocyte proliferation, result in words (human keratinocytes [1]; summary in Example 2): inhibit both proliferation and differentiation of keratinocytes | cornified envelope formation / keratinocyte differentiation, result in words (human keratinocytes [2]; 1 mM, 0.15 mM Ca): inhibited cornified envelope formation significantly | activity at 1000 µM (human keratinocytes [2]; Homo sapiens, Keratinocyte, read-out: CE Levels): 13.7 ± 1.1% | keratinocyte differentiation, result in words (human keratinocytes [2]; summary of Example 2): inhibit both proliferation and differentiation of keratinocytes | choline incorporation into phospholipid fraction, result in words (human keratinocytes [3]; 48 hours): no significant effect on choline incorporation into phospholipid fraction | activity at 10 µM (human keratinocytes [3]; [5]): 91.4 ± 12.7% | activity at 100 µM (human keratinocytes [3]; [5]): 77.5 ± 19.5% | activity at 1000 µM (human keratinocytes [3]; [5]): 74.1 ± 28.8%
